Measurements taken from patent US11459315B2, “Modulators of methyl modifying enzymes, compositions and uses thereof” (Constellation Pharmaceuticals, Inc., priority 2017, dated 2022).
Like-named read-outs stand apart in the source and are kept apart here.

Columns and labels:
PRC2 containing wt EZH2 = PRC2 containing wt EZH2 (Homo sapiens (Human), UniProt Q15910); experiment: EZH2 biochemical assay (IC50), 3H-SAM incorporation into biotinylated H3 peptide
Description: EZH2 biochemical assay (IC50): Compound potencies were assessed through incorporation of ^3H-SAM into a biotinylated H3 peptide. Specifically, 30 pM PRC2 containing wt EZH2 (pentameric complex prepared in-house) was pre-incubated with 450 nM SAM, 450 nM ^3H-SAM, 2 μM H3K27me3 activating peptide (H2N-[…](Kme3)[…]-amide) and compounds (as 10 point duplicate dose response titrations in DMSO, final assay 0.8% DMSO (v/v)) for 3-5 h in 50 mM Tris (pH 8.5), 1 mM DTT, 0.07 mM Brij-35, 0.1% BSA, and 0.8% DMSO in a total volume of 12.5 μl. Reaction was initiated with biotinylated H3 substrate peptide (H2N-[…](Kme1)[…]-NTPEGBiot) as a 2 μM stock in 12.5 μl of buffer and allowed to react at room temperature for 18-22 h. Quenching was accomplished by addition of 20 μl of STOP solution (50 mM Tris (pH 8.5), 200 mM EDTA, 2 mM SAH). 35 μl of the quenched solution was transferred to streptavidin coated FlashPlates (PerkinElmer), incubated 1-2 h, washed, and read in a TopCount Reader (PerkinElmer). IC50s were calculated in Genedata Screener using non-linear least square four parameter fits, where the four parameters were IC50, Hill slope, pre-transitional baseline (0% INH), and post-transitional baseline (100% INH).
IC50 values are reported as follows: “A” indicates an IC50 value of less than 0.5 nM; “B” indicates an IC50 value of 0.5 nM to 5 nM; “C” indicates an IC50 value of greater than 5 nM for each enzyme; and “ND” is not determined.

[1] = system: H3K27me3 mark in HeLa cells (EZH2); experiment: H3K27me3 Alpha Hela Assay (AlphaLISA); type: cell-based; details: HeLa cells, 72 hrs, read-out: EZH2 Cell H3K27me3 Alpha HeLa (EC50 K27me3)
Description: H3K27me3 Alpha Hela Assay (AlphaLISA). Ten different doses of each test compound (in a series of 3-fold dilutions) were plated in duplicate 384-well tissue culture treated plates (Catalog #6007680; Perkin Elmer, Waltham, Mass.). Hela cells grown in culture were trypsinized and counted using a Countess® cell counter (Catalog #C10281; Life Technologies, Grand Island, N.Y.). Cell were diluted to 67,000 cells per mL in 10% DMEM (Catalog #10569-010 Life Technologies, Grand Island, N.Y.) and 15 μL (1,000 cells) were plated into each well using the Biotek MicroFlo™ Select Dispenser (BioTek Instruments, Inc. Vermont, USA),) of the 384-well plate. Plates were incubated at 37° C./5% CO2 for 72 hrs. One of the duplicate plates was processed for HeLa assay and the other for viability.
5 μL of Cell-Histone Lysis buffer (1×) (Catalog #AL009F1 Perkin Elmer; Waltham, Mass.) per well was added to the plate processed for AlphaLISA and the plate was incubated at RT for 30 minutes on a plate shaker with low speed (Model #4625-Q Thermo Scientific; Waltham, Mass.). Then, 10 μL per well Histone Extraction buffer (catalog #AL009F2; Perkin Elmer; Waltham, Mass.) was added and the plate further incubated at RT for 20 min on plate shaker with low speed. Next, 10 μL of 5× mix of anti-K27me3 acceptor beads plus Biotinylated anti-Histone H3 (C-ter) Antibody (diluted to 3 nM final) (Catalog #AL118 Perkin Elmer; Waltham, Mass.) was added in each well. Dilution of the acceptor beads and anti-Histone H3 was done in 1× Histone Detection buffer (Catalog #AL009F3 Perkin Elmer; Waltham, Mass.) which was produced by diluting the 10× stock provided. The plate was sealed with an aluminum plate sealer and incubated at 23° C. for 60 min. Next, 10 μL 5× solution of Streptavidin Donor beads were added (Catalog #6760002 Perkin Elmer; Waltham, Mass.) (20 μg/mL final in 1× Histone Detection Buffer), =plate was sealed with Aluminum plate sealer and incubated at 23° C. for 30 min. The plates were then read using an EnVision-Alpha Reader (model #2104 Perkin Elmer; Waltham, Mass.).
Data from both assays was analyzed using Genedata (Basel, Switzerland). Data files were imported to Genedata and assay conditions were specified. A unique Analysis ID was created and the data files analysed to measure dose-dependent inhibition of H3K27me3 mark and cell viability respectively. Readout of DMSO wells were used to normalize the data. Resulting curves were fitted using Smart fit application (Genedata; Basel, Switzerland). The data was checked for quality, validated and integrated in excel format using Stardrop (Optibruim, Cambridge, UK).
EC50 values are reported as follows: “A” indicates an EC50 value of less than 10 nM; “B” indicates an EC50 value of 10 nM to 100 nM; “C” indicates an EC50 value of greater than 100 nM; and “ND” is not determined.

[2] = 30 pM PRC2 containing wt EZH2; 3-5 h pre-incubation; read-out: EZH2 (IC50)
[3] = EZH2 (IC50), 30 pM PRC2 containing wt EZH2; 3-5 h pre-incubation
[4] = read-out: EZH2 (IC50); 30 pM PRC2 containing wt EZH2; 3-5 h pre-incubation

PRC2 containing wt EZH2, sequence (Q15910 whole entry): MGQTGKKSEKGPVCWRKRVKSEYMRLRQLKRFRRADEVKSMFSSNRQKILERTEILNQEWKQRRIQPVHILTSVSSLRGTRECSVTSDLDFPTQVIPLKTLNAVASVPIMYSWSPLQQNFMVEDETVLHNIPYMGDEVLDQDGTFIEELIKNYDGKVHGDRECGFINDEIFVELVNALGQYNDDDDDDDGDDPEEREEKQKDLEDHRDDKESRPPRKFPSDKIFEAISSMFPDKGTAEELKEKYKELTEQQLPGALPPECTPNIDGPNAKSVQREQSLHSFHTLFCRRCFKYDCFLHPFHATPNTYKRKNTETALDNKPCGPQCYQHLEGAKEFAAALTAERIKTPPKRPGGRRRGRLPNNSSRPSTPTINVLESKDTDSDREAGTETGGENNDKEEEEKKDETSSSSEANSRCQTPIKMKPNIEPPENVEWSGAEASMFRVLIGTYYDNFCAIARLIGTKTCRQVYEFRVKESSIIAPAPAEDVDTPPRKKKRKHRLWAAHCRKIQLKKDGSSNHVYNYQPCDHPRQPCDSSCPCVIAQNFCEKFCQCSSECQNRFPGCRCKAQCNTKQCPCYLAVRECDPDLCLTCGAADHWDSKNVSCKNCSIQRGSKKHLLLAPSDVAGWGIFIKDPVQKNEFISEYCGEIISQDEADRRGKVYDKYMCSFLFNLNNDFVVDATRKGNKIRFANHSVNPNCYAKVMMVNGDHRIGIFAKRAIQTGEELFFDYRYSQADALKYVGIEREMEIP
PRC2 containing wt EZH2, sequence (O75530 whole entry partner): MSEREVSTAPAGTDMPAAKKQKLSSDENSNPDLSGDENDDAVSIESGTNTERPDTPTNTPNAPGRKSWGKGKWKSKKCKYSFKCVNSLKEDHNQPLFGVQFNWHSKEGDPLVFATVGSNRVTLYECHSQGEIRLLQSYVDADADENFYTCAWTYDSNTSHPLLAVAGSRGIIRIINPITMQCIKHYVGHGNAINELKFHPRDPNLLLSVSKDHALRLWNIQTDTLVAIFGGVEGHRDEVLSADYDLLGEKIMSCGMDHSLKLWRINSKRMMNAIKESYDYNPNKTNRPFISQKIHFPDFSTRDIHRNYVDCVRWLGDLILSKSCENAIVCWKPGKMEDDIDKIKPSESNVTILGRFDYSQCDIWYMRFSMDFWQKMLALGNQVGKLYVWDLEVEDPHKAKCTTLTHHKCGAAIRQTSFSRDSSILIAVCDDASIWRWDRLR
PRC2 containing wt EZH2, sequence (Q15022 whole entry partner): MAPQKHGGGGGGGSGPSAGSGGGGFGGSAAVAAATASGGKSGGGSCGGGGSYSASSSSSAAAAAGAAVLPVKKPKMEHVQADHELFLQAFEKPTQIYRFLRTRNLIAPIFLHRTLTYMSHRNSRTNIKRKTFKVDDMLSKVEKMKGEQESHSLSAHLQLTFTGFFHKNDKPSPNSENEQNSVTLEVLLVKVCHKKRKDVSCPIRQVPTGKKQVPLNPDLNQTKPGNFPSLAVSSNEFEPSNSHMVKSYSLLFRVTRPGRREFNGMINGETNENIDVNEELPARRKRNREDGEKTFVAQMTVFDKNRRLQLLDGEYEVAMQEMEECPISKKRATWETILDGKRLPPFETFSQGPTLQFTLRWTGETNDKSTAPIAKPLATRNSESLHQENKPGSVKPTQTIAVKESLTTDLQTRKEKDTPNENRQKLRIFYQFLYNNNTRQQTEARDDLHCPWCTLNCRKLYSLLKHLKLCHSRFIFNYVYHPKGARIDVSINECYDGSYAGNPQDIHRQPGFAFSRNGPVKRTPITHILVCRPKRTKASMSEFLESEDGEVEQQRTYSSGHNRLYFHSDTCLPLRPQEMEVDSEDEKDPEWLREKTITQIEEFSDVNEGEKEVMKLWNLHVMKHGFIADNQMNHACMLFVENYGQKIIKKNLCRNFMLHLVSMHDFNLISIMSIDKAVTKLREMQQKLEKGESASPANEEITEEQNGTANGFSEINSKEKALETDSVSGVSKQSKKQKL
PRC2 containing wt EZH2, sequence (Q09028 whole entry partner): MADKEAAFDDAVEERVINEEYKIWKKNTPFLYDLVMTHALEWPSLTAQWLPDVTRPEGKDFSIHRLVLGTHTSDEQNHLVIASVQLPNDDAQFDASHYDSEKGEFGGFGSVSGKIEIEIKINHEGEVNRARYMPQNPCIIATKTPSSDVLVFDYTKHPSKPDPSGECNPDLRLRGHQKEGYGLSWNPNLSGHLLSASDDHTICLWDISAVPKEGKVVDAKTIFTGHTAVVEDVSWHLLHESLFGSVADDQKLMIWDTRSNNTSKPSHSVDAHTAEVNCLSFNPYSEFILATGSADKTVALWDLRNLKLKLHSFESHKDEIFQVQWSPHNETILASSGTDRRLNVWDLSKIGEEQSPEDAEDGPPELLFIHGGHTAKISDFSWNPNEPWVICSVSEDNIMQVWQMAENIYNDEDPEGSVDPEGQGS
PRC2 containing wt EZH2, sequence (Q6ZN18 whole entry partner): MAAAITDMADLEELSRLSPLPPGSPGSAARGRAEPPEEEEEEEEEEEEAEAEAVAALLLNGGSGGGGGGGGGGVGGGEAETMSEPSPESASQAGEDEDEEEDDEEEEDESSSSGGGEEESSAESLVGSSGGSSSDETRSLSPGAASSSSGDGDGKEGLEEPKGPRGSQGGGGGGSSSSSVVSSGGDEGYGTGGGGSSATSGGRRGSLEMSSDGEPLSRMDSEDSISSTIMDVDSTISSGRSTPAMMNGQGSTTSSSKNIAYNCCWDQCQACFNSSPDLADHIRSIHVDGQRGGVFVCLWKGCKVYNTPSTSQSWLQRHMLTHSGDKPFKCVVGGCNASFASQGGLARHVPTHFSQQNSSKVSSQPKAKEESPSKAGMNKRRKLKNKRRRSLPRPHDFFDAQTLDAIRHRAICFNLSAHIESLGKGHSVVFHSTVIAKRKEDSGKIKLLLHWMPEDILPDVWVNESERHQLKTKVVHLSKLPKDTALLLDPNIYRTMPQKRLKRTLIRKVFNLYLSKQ

## COCCN(C)C1COC([C@@H](C)n2c(C)c(C(=O)NCc3c(SC)cc(C)[nH]c3=O)c3ccccc32)OC1 (single isomer, unassigned) [16 (isomer 2)]
PRC2 containing wt EZH2; [2]
  IC50: > 0.005 µM
[1]
  EC50: > 0.1 µM

## COC1CCC([C@@H](C)n2c(C)c(C(=O)NCc3c(SC)cc(C)[nH]c3=O)c3ccccc32)CC1 (single isomer, unassigned) [18 (isomer 1)]
PRC2 containing wt EZH2; [3]
  IC50: < 0.0005 µM
[1]; Homo sapiens, HeLa, 72 h
  EC50: < 0.01 µM

## COC1CCC([C@@H](C)n2c(C)c(C(=O)NCc3c(SC)cc(C)[nH]c3=O)c3ccccc32)CC1 (single isomer, unassigned) [18 (isomer 2)]
PRC2 containing wt EZH2; [4]
  IC50: < 0.0005 µM
[1]
  EC50: < 0.01 µM

## CSc1cc(C)[nH]c(=O)c1CNC(=O)c1c(C)n([C@H](C)C2CCC(O)CC2)c2ccccc12 (single isomer, unassigned) [19 (isomer 1)]
PRC2 containing wt EZH2; [3]
  IC50: < 0.0005 µM
[1]; Homo sapiens, HeLa, 72 h
  EC50: < 0.01 µM

## CSc1cc(C)[nH]c(=O)c1CNC(=O)c1c(C)n([C@H](C)C2CCC(O)CC2)c2ccccc12 (single isomer, unassigned) [19 (isomer 2)]
PRC2 containing wt EZH2; [4]
  IC50: < 0.0005 µM
[1]
  EC50: < 0.01 µM

## CSc1cc(C)[nH]c(=O)c1CNC(=O)c1c(C)n([C@H](C)C2CCC(N3CC(OC(F)F)C3)CC2)c2ccccc12 (single isomer, unassigned) [20 (isomer 1)]
PRC2 containing wt EZH2; [2]
  IC50: < 0.0005 µM
[1]; Homo sapiens, HeLa, 72 h
  EC50: < 0.01 µM

## CSc1cc(C)[nH]c(=O)c1CNC(=O)c1c(C)n([C@H](C)C2CCC(N3CC(OC(F)F)C3)CC2)c2ccccc12 (single isomer, unassigned) [20 (isomer 2)]
PRC2 containing wt EZH2; [2]
  IC50: < 0.0005 µM
[1]
  EC50: 0.01 to 0.1 µM

## CSc1cc(C)[nH]c(=O)c1CNC(=O)c1c(C)n([C@H](C)C2CCC(N3CC(OC(F)(F)F)C3)CC2)c2ccccc12 (single isomer, unassigned) [21 (isomer 1)]
PRC2 containing wt EZH2; [2]
  IC50: < 0.0005 µM
[1]; Homo sapiens, HeLa, 72 h
  EC50: < 0.01 µM

## CSc1cc(C)[nH]c(=O)c1CNC(=O)c1c(C)n([C@H](C)C2CCC(N3CC(OC(F)(F)F)C3)CC2)c2ccccc12 (single isomer, unassigned) [21 (isomer 2)]
PRC2 containing wt EZH2; [2]
  IC50: < 0.0005 µM
[1]
  EC50: 0.01 to 0.1 µM

## CSc1cc(C)[nH]c(=O)c1CNC(=O)c1c(C)n([C@H](C)C2CCC(C)(O)CC2)c2ccccc12 (single isomer, unassigned) [22 (isomer 1)]
PRC2 containing wt EZH2; [3]
  IC50: < 0.0005 µM
[1]; Homo sapiens, HeLa, 72 h
  EC50: < 0.01 µM

## CSc1cc(C)[nH]c(=O)c1CNC(=O)c1c(C)n([C@H](C)C2CCC(C)(O)CC2)c2ccccc12 (single isomer, unassigned) [22 (isomer 2)]
PRC2 containing wt EZH2; [4]
  IC50: < 0.0005 µM
[1]
  EC50: < 0.01 µM

## CSc1cc(C)[nH]c(=O)c1CNC(=O)c1c(C)n([C@H](C)C2CCC(N3CC(F)(F)C3)CC2)c2ccccc12 (single isomer, unassigned) [23 (isomer 1)]
PRC2 containing wt EZH2; [3]
  IC50: 0.0005 to 0.005 µM
[1]; Homo sapiens, HeLa, 72 h
  EC50: 0.01 to 0.1 µM

## CSc1cc(C)[nH]c(=O)c1CNC(=O)c1c(C)n([C@H](C)C2CCC(N3CC(F)(F)C3)CC2)c2ccccc12 (single isomer, unassigned) [23 (isomer 2)]
PRC2 containing wt EZH2; [3]
  IC50: < 0.0005 µM
[1]
  EC50: < 0.01 µM

## CSc1cc(C)[nH]c(=O)c1CNC(=O)c1c(C)n([C@H](C)C2CCC(N3CC(F)C3)CC2)c2ccccc12 (single isomer, unassigned) [24 (isomer 1)]
PRC2 containing wt EZH2; [3]
  IC50: < 0.0005 µM
[1]; Homo sapiens, HeLa, 72 h
  EC50: < 0.01 µM

## CSc1cc(C)[nH]c(=O)c1CNC(=O)c1c(C)n([C@H](C)C2CCC(N3CC(F)C3)CC2)c2ccccc12 (single isomer, unassigned) [24 (isomer 2)]
PRC2 containing wt EZH2; [4]
  IC50: < 0.0005 µM
[1]
  EC50: < 0.01 µM

## CSc1cc(C)[nH]c(=O)c1CNC(=O)c1c(C)n([C@H](C)[C@H]2CC[C@H](N3CC(OC(F)F)C3)CC2)c2ncccc12 (single isomer, unassigned) [27 (isomer 1)]
PRC2 containing wt EZH2; [2]
  IC50: < 0.0005 µM
[1]; Homo sapiens, HeLa, 72 h
  EC50: < 0.01 µM

## CSc1cc(C)[nH]c(=O)c1CNC(=O)c1c(C)n([C@H](C)C2CCC(N3CC(OC4CC4)C3)CC2)c2ncc(F)cc12 (single isomer, unassigned) [28 (isomer 1)]
PRC2 containing wt EZH2; [2]
  IC50: < 0.0005 µM
[1]; Homo sapiens, HeLa, 72 h
  EC50: < 0.01 µM

## CSc1cc(C)[nH]c(=O)c1CNC(=O)c1c(C)n([C@H](C)C2CCC(N3CC(OC4CC4)C3)CC2)c2ncc(F)cc12 (single isomer, unassigned) [28 (isomer 2)]
PRC2 containing wt EZH2; [2]
  IC50: < 0.0005 µM
[1]
  EC50: 0.01 to 0.1 µM

## CSc1cc(C)[nH]c(=O)c1CNC(=O)c1c(C)n([C@H](C)C2CCC(O)CC2)c2ncccc12 (single isomer, unassigned) [36 (isomer 1)]
PRC2 containing wt EZH2; [3]
  IC50: < 0.0005 µM
[1]; Homo sapiens, HeLa, 72 h
  EC50: 0.01 to 0.1 µM

## CSc1cc(C)[nH]c(=O)c1CNC(=O)c1c(C)n([C@H](C)C2CCC(O)CC2)c2ncccc12 (single isomer, unassigned) [36 (isomer 2)]
PRC2 containing wt EZH2; [4]
  IC50: < 0.0005 µM
[1]
  EC50: < 0.01 µM

## COC1CCC([C@@H](C)n2c(C)c(C(=O)NCc3c(SC)cc(C)[nH]c3=O)c3cncnc32)CC1 (single isomer, unassigned) [41 (isomer 1)]
PRC2 containing wt EZH2; [3]
  IC50: < 0.0005 µM
[1]; Homo sapiens, HeLa, 72 h
  EC50: < 0.01 µM

## COC1CCC([C@@H](C)n2c(C)c(C(=O)NCc3c(SC)cc(C)[nH]c3=O)c3cncnc32)CC1 (single isomer, unassigned) [41 (isomer 2)]
PRC2 containing wt EZH2; [4]
  IC50: < 0.0005 µM
[1]
  EC50: < 0.01 µM

## CSc1cc(C)[nH]c(=O)c1CNC(=O)c1c(C)n([C@H](C)C2CCC(O)CC2)c2cc(F)ccc12 (single isomer, unassigned) [44 (isomer 1)]
PRC2 containing wt EZH2; [3]
  IC50: < 0.0005 µM
[1]; Homo sapiens, HeLa, 72 h
  EC50: < 0.01 µM

## CSc1cc(C)[nH]c(=O)c1CNC(=O)c1c(C)n([C@H](C)C2CCC(O)CC2)c2cc(F)ccc12 (single isomer, unassigned) [44 (isomer 2)]
PRC2 containing wt EZH2; [4]
  IC50: < 0.0005 µM
[1]
  EC50: < 0.01 µM

## CSc1cc(C)[nH]c(=O)c1CNC(=O)c1c(C)n([C@H](C)C2CCC(N(C)C)CC2)c2ncccc12 (single isomer, unassigned) [51 (isomer 1)]
PRC2 containing wt EZH2; [2]
  IC50: < 0.0005 µM
[1]
  EC50: 0.01 to 0.1 µM

## CSc1cc(C)[nH]c(=O)c1CNC(=O)c1c(C)n([C@H](C)C2CCC(N(C)C)CC2)c2ncccc12 (single isomer, unassigned) [51 (isomer 2)]
PRC2 containing wt EZH2; [2]
  IC50: < 0.0005 µM
[1]
  EC50: > 0.1 µM
